In publication PMC4183669 (Chemistry and physics of lipids, 2014):
Where two headings read alike, the source gives them in different places. Peptide text beside a SMILES is read from it. * marks the point of attachment. X1 = CCCCCCCCCCCCCCCC(=O)OC[C@H](COP(=O)([O-])OCC[N+](C)(C)C)O*

Columns and labels:
membrane fusion = settings: ref Epand, 2003; cited from earlier work
[1] = target: bee-venom phospholipase A2 (Apis mellifera, UniProt P00630); assay type: biochemical
bee-venom phospholipase A2, sequence (P00630 34-167 limits assumed): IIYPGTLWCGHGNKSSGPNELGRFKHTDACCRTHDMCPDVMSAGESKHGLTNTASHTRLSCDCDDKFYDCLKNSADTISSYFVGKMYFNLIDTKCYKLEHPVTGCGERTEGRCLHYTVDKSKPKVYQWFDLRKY

Row | Compound | antiviral action by inhibition of membrane fusion (membrane fusion) | time to complete hydrolysis by PLA2 [1] | time to complete hydrolysis by PLA2 ([1]; 40°C) | time to complete hydrolysis by PLA2 ([1]; pH 8.5) | hydrolysis by bee-venom PLA2 (result in words) [1]
1 | carbobenzoxy-D-Phe-Phe-Gly [compound 5] | blocking viral infection by inhibiting membrane fusion |  |  |  | 
2 | CCCCCCCCCCCCCCCC(=O)OC[C@H](COP(=O)([O-])OCC[N+](C)(C)C)OC(=O)CCCCCCCCCCCCCCC [DPPC, dipalmitoyl phosphatidylcholine, reference compound] |  | 10 min | ≤ 90 min | 10 min | 
3 | CCCCCCCCCCCCCCCC(=O)OC[C@H](COP(=O)([O-])OCC[N+](C)(C)C)OC(=O)CNC(=O)CNC(=O)[C@@H]1CCCN1C(=O)CN.Cl [compound 10, 1-Palmitoyl-2-(gly-pro-gly-gly)-sn-glycero-3-phosphocholine hydrochloride] (H-GPGG-X1) |  |  |  | ≤ 90 min | completely hydrolyzed
4 | CCCCCCCCCCCCCCCC(=O)OC[C@H](COP(=O)([O-])OCC[N+](C)(C)C)OC(=O)CNC(=O)[C@H](Cc1ccccc1)NC(=O)[C@@H](Cc1ccccc1)NC(=O)OCc1ccccc1 [compound 13, 1-Palmitoyl-2-(CBZ-D-phe-phe-gly)-sn-glycero-3-phosphocholine] |  |  |  | ≤ 90 min | completely hydrolyzed
5 | CCCCCCCCCCCCCCCC(=O)OC[C@H](COP(=O)([O-])OCC[N+](C)(C)C)OC(=O)CNC(=O)OC(C)(C)C [compound 14, 1-palmitoyl-2-(N-BOC-glycyl)-sn-glycero-3-phosphocholine] |  | 20 min |  |  | readily hydrolyzed
